In this experiment the target is T1, recombinant alpha-glucosidase I (human full-length glucosidase I, Glu 1) (Homo sapiens, UniProt Q13724).
T1 construct: 6-His (C); made in house; host or cells: HEK-293T cells transduced with BacMam virus (virus raised in Sf9)
T1 sequence (Q13724 1-837): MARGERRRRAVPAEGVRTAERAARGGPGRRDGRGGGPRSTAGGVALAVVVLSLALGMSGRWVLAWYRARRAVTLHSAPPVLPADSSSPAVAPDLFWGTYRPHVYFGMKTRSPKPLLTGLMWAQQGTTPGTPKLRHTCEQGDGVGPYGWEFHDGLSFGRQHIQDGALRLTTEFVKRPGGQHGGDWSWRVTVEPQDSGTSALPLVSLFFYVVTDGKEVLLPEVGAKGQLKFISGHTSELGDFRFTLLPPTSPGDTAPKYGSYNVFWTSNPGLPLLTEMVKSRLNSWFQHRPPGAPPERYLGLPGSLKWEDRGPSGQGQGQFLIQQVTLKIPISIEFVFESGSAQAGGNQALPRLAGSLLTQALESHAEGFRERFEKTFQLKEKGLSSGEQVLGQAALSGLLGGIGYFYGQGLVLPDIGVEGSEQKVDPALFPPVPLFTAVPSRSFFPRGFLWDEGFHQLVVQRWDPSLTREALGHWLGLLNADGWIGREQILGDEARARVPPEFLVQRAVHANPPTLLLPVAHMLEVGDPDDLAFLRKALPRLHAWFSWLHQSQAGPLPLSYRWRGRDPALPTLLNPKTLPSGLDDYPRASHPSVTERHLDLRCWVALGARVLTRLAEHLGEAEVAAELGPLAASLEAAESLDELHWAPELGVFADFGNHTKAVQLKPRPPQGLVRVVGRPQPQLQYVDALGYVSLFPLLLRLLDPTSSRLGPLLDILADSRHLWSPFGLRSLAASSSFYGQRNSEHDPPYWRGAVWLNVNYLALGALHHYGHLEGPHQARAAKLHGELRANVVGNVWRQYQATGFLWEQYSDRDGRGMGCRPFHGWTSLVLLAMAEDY
The experiment can be described thus: Alpha-glucosidase I assay (Amplex Red glucose detection, synthetic trisaccharide substrate). The format is biochemical. As to conditions: Glucosidase 1; read-out: Glu 1 IC50. The gist of the method:
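Human full-length glucosidase I, His-tagged, […] and Ni-purified. Enzyme preincubated with compound dilutions 60 min at 37° C, then synthetic trisaccharide substrate 90 min at 37° C; stopped with 1.5M Tris pH 8.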

Broadly, the IC50 is the concentration that gives 50% inhibition.

Where only a bound is given, the exact number is not on record here.

For the compound `O=[N+]([O-])c1cc(-c2ccncc2)ccc1NCCc1ccc(CCN2C[C@H](O)[C@@H](O)[C@H](O)[C@H]2CO)cc1` [Compound 1110, (2R,3R,4R,5S)-2-(hydroxymethyl)-1-{2-[4-(2-{[2-nitro-4-(pyridin-4-yl)phenyl]amino}ethyl)phenyl]ethyl}piperidine-3,4,5-triol], the IC50 was below 0.001 µM. On to `O=[N+]([O-])c1cc(-c2ncccn2)ccc1NCCc1ccc(CCN2C[C@H](O)[C@@H](O)[C@H](O)[C@H]2CO)cc1` [Compound 1111, (2R,3R,4R,5S)-2-(hydroxymethyl)-1-{2-[4-(2-{[2-nitro-4-(pyrimidin-2-yl)phenyl]amino}ethyl)phenyl]ethyl}piperidine-3,4,5-triol], for which the IC50 was found to be 0.068 µM. As for `O=[N+]([O-])c1cc(-c2ncco2)ccc1NCCc1ccc(CCN2C[C@H](O)[C@@H](O)[C@H](O)[C@H]2CO)cc1` [Compound 1112, (2R,3R,4R,5S)-2-(hydroxymethyl)-1-{2-[4-(2-{[2-nitro-4-(1,3-oxazol-2-yl)phenyl]amino}ethyl)phenyl]ethyl}piperidine-3,4,5-triol], the figure is 0.089 µM; as for `O=S(=O)(Nc1cc(NCCCCCCN2C[C@H](O)[C@@H](O)[C@H](O)[C@H]2CO)cc(-c2ncccn2)c1)C1CC1` [Compound 1114, N-[3-(pyrimidin-2-yl)-5-({6-[(2R,3R,4R,5S)-3,4,5-trihydroxy-2-(hydroxymethyl)piperidin-1-yl]hexyl}amino)phenyl]cyclopropanesulfonamide], 0.108 µM; as for `[N-]=[N+]=Nc1ccc(NCCc2cc(CCN3C[C@H](O)[C@@H](O)[C@H](O)[C@H]3CO)cc(C3CCCCC3)c2)c([N+](=O)[O-])c1` [Compound 1115, (2R,3R,4R,5S)-1-[2-(3-{2-[(4-azido-2-nitrophenyl)amino]ethyl}-5-cyclohexylphenyl)ethyl]-2-(hydroxymethyl)piperidine-3,4,5-triol], 0.1 µM.

In the case of `COC(=O)c1cc(Cl)cc(NCCc2ccc(CCN3C[C@H](O)[C@@H](O)[C@H](O)[C@H]3CO)cc2)c1` [Compound 1116, methyl 3-chloro-5-{[2-(4-{2-[(2R,3R,4R,5S)-3,4,5-trihydroxy-2-(hydroxymethyl)piperidin-1-yl]ethyl}phenyl)ethyl]amino}benzoate], the IC50 was 1.36 µM. On to `O=C(O)c1cc(Cl)cc(NCCc2ccc(CCN3C[C@H](O)[C@@H](O)[C@H](O)[C@H]3CO)cc2)c1` [Compound 1117, 3-chloro-5-{[2-(4-{2-[(2R,3R,4R,5S)-3,4,5-trihydroxy-2-(hydroxymethyl)piperidin-1-yl]ethyl}phenyl)ethyl]amino}benzoic acid], for which the 50% inhibitory concentration (IC50) amounted to 0.877 µM.

As for `O=C(O)c1cc(NCCCCCCN2C[C@H](O)[C@@H](O)[C@H](O)[C@H]2CO)cc(-c2ncccn2)c1` [Compound 1118, 3-(pyrimidin-2-yl)-5-({6-[(2R,3R,4R,5S)-3,4,5-trihydroxy-2-(hydroxymethyl)piperidin-1-yl]hexyl}amino) benzoic acid], the IC50 amounted to 0.01 µM. Turning to `COc1cc(NCCc2ccc(CCN3C[C@H](O)[C@@H](O)[C@H](O)[C@H]3CO)cc2)cc(-c2noc(C3CCC3)n2)c1` [Compound 1120, (2R,3R,4R,5S)-1-{2-[4-(2-{[3-(5-cyclobutyl-1,2,4-oxadiazol-3-yl)-5-methoxyphenyl]amino}ethyl)phenyl]ethyl}-2-(hydroxymethyl)piperidine-3,4,5-triol], the half-maximal inhibitory concentration (IC50) is 1.13 µM. The figure for `OC[C@@H]1[C@@H](O)[C@H](O)[C@@H](O)CN1CCc1ccc(CCNc2cc(Cl)cc(-c3noc(C4CCC4)n3)c2)cc1` [Compound 1122, (2R,3R,4R,5S)-1-{2-[4-(2-{[3-chloro-5-(5-cyclobutyl-1,2,4-oxadiazol-3-yl)phenyl]amino}ethyl)phenyl]ethyl}-2-(hydroxymethyl)piperidine-3,4,5-triol] is 1.16 µM.

Source of the values: patent US20250197372A1 (priority 2020, published 2025).
